{"source": "patent US9701709B2", "about": "(REATA PHARMACEUTICALS, INC., priority 2012, dated 2017)", "key": {"[1]": {"test_system": "H6PD, PGD, TKT, ME1 mRNA in HCT-116 cells", "assay": "mRNA of NADPH synthesis genes in HCT-116", "type": "cell-based", "conditions": "HCT-116, 10 or 50 nM, 24 h", "experimental": "HCT-116 cells were plated in 6-well dishes at a density of 3×10^5 cells/well. […] Each well received the same amount of vehicle. Following treatment, media was removed and cells were harvested using RLT buffer (Qiagen). Lysates were homogenized using QIAShredder columns (Qiagen, Catalog #79654) and RNA was isolated using RNeasy Mini kits (Qiagen, Catalog #74104). For reverse transcription, RNA (1 μg) was combined with Oligo(dT)12-18 primer and H2O in a final volume of 23.25 μL. The mixture was heated to 70° C. for 10 min and then placed on ice. A master mix containing 8 μL 5×1st strand buffer, 2 μL 1 mg/ml BSA, 2 μL 20 mM DTT, 4 μL 5 mM dNTP mix, 0.25 μL RNaseOUTTM and 0.5 μL […]® II reverse transcriptase was added to the RNA mixture and incubated at 42° C. for 1 h. The reaction was inactivated by heating to 70° C. for 10 min. The reaction mixture was diluted 1:3 with H2O prior to use in qPCR. 2.5 μL of the diluted reverse transcription reaction was combined with one set of PCR primers (0.36 μM final concentration), 2× iQTM SYBR® Green Supermix (Bio-Rad, Catalog #170-8885) and H2O to a final volume of 20 pt. Sequences for PCR primers are as follows: Ribosomal protein S9 (RPS9) forward primer [NT] ID NO: 7), reverse primer [NT] ID NO: 8); […] […] The relative abundance of each target gene was determined using the comparative CT method (ΔΔCT). […]"}, "[2]": {"test_system": "RANKL-induced osteoclastogenesis in RAW264.7", "assay": "RANKL-induced osteoclastogenesis (TRAP activity) in RAW264.7", "type": "cell-based", "conditions": "Mus musculus, 96 h, 50 ng/mL RANKL, four days, read-out: IC50, RANKL-induced TRAP activity and formation of osteoclasts", "experimental": "STAT3 (124H6) and phospho-STAT3 (Tyr705) monoclonal antibodies were from Cell Signaling Technology. Peroxidase-conjugated Affini-pure Goat anti-Rabbit IgG and Peroxidase-conjugated Affini-pure Goat anti-Mouse IgG were from Jackson ImmunoResearch. Osteoclastogenesis is a multi-step differentiation process that results from the binding of RANKL to its receptor, RANK, on cells of hematopoietic origin. […] RAW 264.7 cells were plated in 24-well plates at a density of 5,000 cells/well. […] The treated cells were incubated for four days to allow differentiation into osteoclasts. Differentiation into osteoclasts was assessed by measuring TRAP activity. In brief, 90 μl of conditioned cell culture media was removed from each test well and aliquoted into triplicate wells (30 μL/well) of a 96-well plate. 170 μL of TRAP Assay buffer (Kamiya Biomedical) was then added to each well and the plate was incubated at 37° C. for 3 hours. Following the incubation, absorbance at 540 nm was determined using a Spectramax M2 plate reading spectrophotometer."}, "[3]": {"assay": "Oral pharmacokinetics in mice", "type": "in vivo, mouse", "conditions": "oral suspension, 10 to 100 mg/kg", "experimental": "(§1) Measurements were performed on TQD and QToF mass spectrometers (Waters).\n(§2) Following oral administration of a suspension formulation at doses of 10 to 100 mg/kg, maximal concentrations were observed within 1 to 2 h in mice, and within 1 to 24 h in rats and monkeys."}, "[4]": {"assay": "Oral pharmacokinetics, statements pooled over mice, rats, and monkeys", "type": "in vivo", "conditions": "mouse, rat, monkey, plasma; after oral administration; read-out: Apparent terminal half-life", "experimental": "as §1, §2"}, "CYP2C8": {"biological_target": "CYP2C8 (Homo sapiens, UniProt P10632)", "sequence (P10632 whole entry)": "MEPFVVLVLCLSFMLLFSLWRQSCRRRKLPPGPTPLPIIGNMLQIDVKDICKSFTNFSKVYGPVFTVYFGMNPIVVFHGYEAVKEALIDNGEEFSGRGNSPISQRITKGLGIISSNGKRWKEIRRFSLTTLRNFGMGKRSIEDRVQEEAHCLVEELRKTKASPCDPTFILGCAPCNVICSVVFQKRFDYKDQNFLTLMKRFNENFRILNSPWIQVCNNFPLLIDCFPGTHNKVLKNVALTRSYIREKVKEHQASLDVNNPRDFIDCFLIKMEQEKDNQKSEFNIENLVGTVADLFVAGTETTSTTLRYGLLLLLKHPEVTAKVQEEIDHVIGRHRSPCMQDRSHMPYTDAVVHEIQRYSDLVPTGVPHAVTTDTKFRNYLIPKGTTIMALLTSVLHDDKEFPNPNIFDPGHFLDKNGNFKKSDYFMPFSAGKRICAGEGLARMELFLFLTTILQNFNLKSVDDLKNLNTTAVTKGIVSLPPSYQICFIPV", "assay": "CYP450 inhibition in pooled human liver microsomes, CYP2C8", "type": "in vitro ADME", "conditions": "read-out: Ki, direct inhibition of CYP2C8", "source_text": "In addition, there was little or no evidence of metabolism-dependent inhibition of any of the enzymes tested."}, "[5]": {"assay": "Plasma protein binding (ultracentrifugation), human"}}, "data": [{"smiles": "CC1(C)CC[C@]2(NC(=O)C(C)(F)F)CC[C@]3(C)[C@H](C(=O)C=C4[C@@]5(C)C=C(C#N)C(=O)C(C)(C)[C@@H]5CC[C@]43C)[C@@H]2C1", "note": "[RTA 408, N-((4aS,6aR,6bS,8aR,12aS,14aR,14bS)-11-cyano-2,2,6a,6b,9,9,12a-heptamethyl-10,14-dioxo-1,2,3,4,4a,5,6,6a,6b,7,8,8a,9,10,12a,14,14a,14b-octadecahydropicen-4a-yl)-2,2-difluoropropanamide]", "values": [{"measurement": "Expression of genes involved in NADPH synthesis", "setting": "[1]", "value": "dose-dependent increase in expression of genes involved in NADPH synthesis"}, {"measurement": "IC50", "setting": "[2]", "value": "5 to 10", "unit": "nM"}, {"measurement": "Time of maximal concentrations", "setting": "[3]", "value": "1 to 2", "unit": "h"}, {"measurement": "half-life", "setting": "[4]", "value": "360 to 1560", "unit": "min"}, {"measurement": "Ki", "setting": "CYP2C8", "value": "~500", "unit": "nM"}, {"measurement": "fraction unbound", "setting": "[5]", "value": 0.03}]}]}
